The test system of this test is Debrase esterolytic activity. The test can be described thus: Esterolytic activity of Debrase (CLN substrate) and its inhibition by bromelain HPLC fractions. It is filed as biochemical, Ananas comosus. The following applies: Debrase + 1 mM Iodoacetamide, pH 4.6. On the procedure: Bromelain powder (2.5 g) was suspended in 10 ml of 0.1M potassium phosphate buffer pH 6.1 saturated with phenyl mercury acetate for 10 min. After centrifugation for 10 min (3500 rpm), one ml of the supernatant was applied to gel filtration chromatography on a HiLoad 16/60 Superdex 75 HPLC preparation grade column, equilibrated and eluted with the same buffer. Fractions of 5 ml were collected 30 minutes after sample application. For each of the eluted fractions, three parameters were measured: (i) absorbance at 280 nm (A280); (ii) esterolytic activity; and (iii) inhibition of Debrase esterolytic activity.
The esterolytic activity of the bromelain fractions was assayed spectrophotometrically at pH 4.6 using the chromogenic substrate p-nitrophenyl Na-benzyloxycarbonyl-L-lysinate (CLN) as follows:
One milliliter of sodium acetated buffer (10 mM) containing 0.1 M KCl and 1 mM L-cysteine, pH 4.6 was placed in a plastic cuvette at 25° C. One hundred μl of the eluted fraction (at a concentration of 2.5 mg/ml) were added. The solution was incubated for 2 min and then 50 μl of CLN solution (2.5 mM in acetonitrile 10% water) were added. The cuvette was mixed and the increase in absorbance at 317 nm was monitored for 5 minutes. The spontaneous hydrolysis of the substrate was monitored in the presence of buffer only instead of the eluted fractions.

The record followed here is US8540983B2, “Debriding composition from bromelain and methods of production thereof” (MediWound Ltd., priority 2004, dated 2013).

SMILES strings stand for the structures.

As for `NC(=O)CI` [Iodoacetamide], the “% Inhibition” value worked out at 37.0% and the “Proteolytic activity (esterolytic activity of Debrase)” value turned out to be 593.

A word on the % Inhibition: it is the change of the read-out against control, counted positive when it falls.
